Reference: ChEMBL document CHEMBL4507276 (2021)

Columns and labels:
[1] = biological target: GABA-A receptor; anion channel (Rattus norvegicus) (UniProt O09028+P15431+P18506+P18508+P19969+P20236+P23574+P23576+P28471+P28473+P30191+P62813+P63079+P63138+Q91ZM7+Q9ES14); settings: Compound concentration 10.0 uM
[2] = biological target: Adenosine receptor A2b (Homo sapiens) (UniProt P29275); assay: A2B/H Cerep selectivity data (BI); settings: Compound concentration 20.0 uM
[3] = biological target: Adenosine receptor A1 (Homo sapiens) (UniProt P30542); assay: A1H_AGON Cerep selectivity data (BI); settings: filed as agonist, Compound concentration 20.0 uM
[4] = biological target: Prostaglandin E2 receptor EP2 subtype (Homo sapiens) (UniProt P43116); assay: EP2(H) Cerep selectivity data (BI); settings: filed as agonist, Compound concentration 20.0 uM
[5] = biological target: Proto-oncogene tyrosine-protein kinase ROS (Homo sapiens) (UniProt P08922); assay: ROS1 Invitrogen selectivity data (BI); settings: Compound concentration 3.0 uM
Sequence of Proto-oncogene tyrosine-protein kinase ROS (Homo sapiens) (P08922 whole entry): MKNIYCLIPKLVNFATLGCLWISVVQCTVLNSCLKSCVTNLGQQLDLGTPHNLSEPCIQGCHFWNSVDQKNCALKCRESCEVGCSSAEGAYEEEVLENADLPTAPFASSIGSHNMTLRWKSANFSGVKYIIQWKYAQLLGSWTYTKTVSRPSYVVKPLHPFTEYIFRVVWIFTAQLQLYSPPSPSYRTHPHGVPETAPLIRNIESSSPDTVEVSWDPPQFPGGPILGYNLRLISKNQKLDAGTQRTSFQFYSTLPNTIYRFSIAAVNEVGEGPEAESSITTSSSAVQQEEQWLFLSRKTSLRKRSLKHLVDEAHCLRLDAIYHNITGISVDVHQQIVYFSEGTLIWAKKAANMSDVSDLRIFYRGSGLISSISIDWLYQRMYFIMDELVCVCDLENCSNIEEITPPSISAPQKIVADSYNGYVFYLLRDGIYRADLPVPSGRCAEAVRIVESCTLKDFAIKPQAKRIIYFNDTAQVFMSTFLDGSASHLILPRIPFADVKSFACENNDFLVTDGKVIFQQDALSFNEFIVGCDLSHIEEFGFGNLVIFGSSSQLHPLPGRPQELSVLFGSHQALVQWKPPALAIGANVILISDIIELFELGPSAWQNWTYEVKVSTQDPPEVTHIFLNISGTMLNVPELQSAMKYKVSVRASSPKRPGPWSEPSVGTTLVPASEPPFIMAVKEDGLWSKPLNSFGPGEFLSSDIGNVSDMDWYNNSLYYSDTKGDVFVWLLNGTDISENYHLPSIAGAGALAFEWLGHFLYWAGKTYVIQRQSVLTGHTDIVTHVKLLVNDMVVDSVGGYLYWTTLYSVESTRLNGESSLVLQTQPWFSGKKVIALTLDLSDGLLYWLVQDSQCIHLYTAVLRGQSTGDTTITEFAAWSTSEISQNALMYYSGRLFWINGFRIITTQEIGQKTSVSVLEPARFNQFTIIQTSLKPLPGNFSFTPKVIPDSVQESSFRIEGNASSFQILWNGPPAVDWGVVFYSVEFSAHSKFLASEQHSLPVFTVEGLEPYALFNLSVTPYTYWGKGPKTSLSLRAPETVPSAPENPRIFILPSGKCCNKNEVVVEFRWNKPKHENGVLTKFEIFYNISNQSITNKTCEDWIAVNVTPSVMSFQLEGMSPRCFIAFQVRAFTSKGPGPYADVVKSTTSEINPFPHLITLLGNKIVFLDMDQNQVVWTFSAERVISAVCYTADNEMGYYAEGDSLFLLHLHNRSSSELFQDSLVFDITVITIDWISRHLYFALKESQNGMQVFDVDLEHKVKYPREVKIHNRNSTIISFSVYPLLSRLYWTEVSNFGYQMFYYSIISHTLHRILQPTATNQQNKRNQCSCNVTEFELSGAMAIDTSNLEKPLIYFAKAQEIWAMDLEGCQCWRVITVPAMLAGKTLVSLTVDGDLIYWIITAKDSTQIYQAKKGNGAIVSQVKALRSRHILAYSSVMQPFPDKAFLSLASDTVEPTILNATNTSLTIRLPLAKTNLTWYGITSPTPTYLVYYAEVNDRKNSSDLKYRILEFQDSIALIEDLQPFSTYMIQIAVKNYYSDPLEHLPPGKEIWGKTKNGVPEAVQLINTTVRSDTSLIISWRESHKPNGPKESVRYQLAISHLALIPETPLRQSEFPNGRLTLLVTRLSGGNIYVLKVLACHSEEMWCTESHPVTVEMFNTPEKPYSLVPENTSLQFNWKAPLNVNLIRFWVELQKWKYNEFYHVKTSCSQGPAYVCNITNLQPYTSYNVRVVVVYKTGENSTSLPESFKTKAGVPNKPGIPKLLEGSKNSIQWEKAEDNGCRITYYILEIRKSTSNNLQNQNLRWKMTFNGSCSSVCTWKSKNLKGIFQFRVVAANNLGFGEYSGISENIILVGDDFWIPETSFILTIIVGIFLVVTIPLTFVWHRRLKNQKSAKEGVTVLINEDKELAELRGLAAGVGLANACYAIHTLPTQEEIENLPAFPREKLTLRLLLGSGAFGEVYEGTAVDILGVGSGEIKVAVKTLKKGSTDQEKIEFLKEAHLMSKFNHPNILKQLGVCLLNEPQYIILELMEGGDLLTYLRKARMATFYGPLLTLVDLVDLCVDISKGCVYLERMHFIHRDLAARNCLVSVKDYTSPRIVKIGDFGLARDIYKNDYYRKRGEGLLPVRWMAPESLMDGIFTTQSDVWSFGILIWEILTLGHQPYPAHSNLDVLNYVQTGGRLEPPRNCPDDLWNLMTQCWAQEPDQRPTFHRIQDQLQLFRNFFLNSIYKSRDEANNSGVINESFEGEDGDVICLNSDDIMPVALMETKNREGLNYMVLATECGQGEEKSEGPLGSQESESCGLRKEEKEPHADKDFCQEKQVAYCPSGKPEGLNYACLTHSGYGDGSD

[6] = biological target: D(2) dopamine receptor (Homo sapiens) (UniProt P14416); assay: D2S/HU Eurofins-Panlabs selectivity data (BI); settings: Compound concentration 10.0 uM
Sequence of D(2) dopamine receptor (Homo sapiens) (P14416 whole entry): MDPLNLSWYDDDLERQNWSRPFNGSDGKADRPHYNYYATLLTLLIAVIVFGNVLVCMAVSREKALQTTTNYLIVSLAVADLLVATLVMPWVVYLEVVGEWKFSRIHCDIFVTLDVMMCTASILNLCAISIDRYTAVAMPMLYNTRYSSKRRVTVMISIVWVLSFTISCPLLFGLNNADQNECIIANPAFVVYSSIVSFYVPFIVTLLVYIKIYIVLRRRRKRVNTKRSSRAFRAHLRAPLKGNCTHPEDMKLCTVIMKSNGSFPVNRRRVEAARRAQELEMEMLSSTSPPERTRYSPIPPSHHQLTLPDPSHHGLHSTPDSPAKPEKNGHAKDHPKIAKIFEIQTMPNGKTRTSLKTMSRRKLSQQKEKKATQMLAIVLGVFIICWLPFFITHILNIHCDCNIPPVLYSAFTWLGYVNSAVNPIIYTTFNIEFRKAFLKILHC

[7] = biological target: Matrix metalloproteinase-9 (Homo sapiens) (UniProt P14780); assay: MMP-9 (H) Cerep selectivity data (BI); settings: Compound concentration 20.0 uM
Sequence of Matrix metalloproteinase-9 (Homo sapiens) (P14780 whole entry): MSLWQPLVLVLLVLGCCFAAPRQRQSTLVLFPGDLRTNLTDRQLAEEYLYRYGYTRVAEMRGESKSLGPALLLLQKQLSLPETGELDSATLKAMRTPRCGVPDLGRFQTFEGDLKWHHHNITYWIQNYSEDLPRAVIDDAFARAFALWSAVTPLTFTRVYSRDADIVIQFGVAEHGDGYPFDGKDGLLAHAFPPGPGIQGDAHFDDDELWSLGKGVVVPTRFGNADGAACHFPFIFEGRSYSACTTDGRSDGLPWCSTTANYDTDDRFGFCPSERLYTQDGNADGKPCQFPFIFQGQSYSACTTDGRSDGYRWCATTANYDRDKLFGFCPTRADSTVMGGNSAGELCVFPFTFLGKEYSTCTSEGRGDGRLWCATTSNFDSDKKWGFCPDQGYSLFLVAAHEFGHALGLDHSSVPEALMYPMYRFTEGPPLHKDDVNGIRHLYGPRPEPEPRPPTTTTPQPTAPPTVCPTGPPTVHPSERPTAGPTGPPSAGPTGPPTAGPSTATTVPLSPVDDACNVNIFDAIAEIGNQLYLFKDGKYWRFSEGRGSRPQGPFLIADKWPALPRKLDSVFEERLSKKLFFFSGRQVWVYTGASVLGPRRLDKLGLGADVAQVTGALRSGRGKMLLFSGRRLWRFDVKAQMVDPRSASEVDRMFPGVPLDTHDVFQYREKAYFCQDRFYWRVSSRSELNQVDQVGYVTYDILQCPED

[8] = biological target: Vasopressin V2 receptor (Homo sapiens) (UniProt P30518); assay: V2/H Cerep selectivity data (BI); settings: Compound concentration 20.0 uM
Sequence of Vasopressin V2 receptor (Homo sapiens) (P30518 whole entry): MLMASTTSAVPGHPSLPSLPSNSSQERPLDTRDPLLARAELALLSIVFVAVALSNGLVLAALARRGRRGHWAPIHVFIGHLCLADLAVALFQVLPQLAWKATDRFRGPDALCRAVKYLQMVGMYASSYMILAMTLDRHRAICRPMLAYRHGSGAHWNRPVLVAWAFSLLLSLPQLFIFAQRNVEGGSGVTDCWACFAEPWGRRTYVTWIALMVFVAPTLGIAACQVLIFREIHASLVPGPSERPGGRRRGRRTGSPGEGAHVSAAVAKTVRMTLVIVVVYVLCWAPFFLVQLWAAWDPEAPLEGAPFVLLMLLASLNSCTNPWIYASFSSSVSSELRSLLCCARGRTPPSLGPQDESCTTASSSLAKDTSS

[9] = biological target: T1, Serine/threonine-protein kinase D3 (Homo sapiens) (UniProt O94806); assay: PRKCN Invitrogen selectivity data (BI); settings: Compound concentration 3.0 uM
T1 sequence (whole entry): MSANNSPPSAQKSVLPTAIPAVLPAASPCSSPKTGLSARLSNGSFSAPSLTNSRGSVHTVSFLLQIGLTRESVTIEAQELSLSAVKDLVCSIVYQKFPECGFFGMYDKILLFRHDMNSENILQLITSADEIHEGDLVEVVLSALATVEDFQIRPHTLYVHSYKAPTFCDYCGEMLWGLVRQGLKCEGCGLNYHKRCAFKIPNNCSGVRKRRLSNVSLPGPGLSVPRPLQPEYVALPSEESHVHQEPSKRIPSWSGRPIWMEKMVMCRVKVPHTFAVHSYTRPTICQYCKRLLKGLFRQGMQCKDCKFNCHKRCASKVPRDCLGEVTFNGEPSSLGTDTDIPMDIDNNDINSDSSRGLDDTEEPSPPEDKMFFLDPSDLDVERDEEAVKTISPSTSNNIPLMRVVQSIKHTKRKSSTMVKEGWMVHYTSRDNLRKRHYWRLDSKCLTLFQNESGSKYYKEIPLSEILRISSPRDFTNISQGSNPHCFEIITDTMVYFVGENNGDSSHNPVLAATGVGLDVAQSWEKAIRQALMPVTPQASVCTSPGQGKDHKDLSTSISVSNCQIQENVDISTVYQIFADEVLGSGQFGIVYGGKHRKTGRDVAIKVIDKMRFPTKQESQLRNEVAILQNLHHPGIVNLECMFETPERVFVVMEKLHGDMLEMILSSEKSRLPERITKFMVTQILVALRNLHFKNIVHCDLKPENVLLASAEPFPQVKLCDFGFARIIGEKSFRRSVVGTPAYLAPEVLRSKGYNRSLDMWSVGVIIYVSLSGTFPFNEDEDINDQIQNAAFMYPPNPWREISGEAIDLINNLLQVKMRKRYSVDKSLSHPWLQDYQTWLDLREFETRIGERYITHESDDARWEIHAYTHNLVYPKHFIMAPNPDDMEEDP

[10] = biological target: Alpha-2C adrenergic receptor (Homo sapiens) (UniProt P18825); assay: ALPHA2CH_ANTAG Cerep selectivity data (BI); settings: filed as antagonist, Compound concentration 20.0 uM
Sequence of Alpha-2C adrenergic receptor (Homo sapiens) (P18825 whole entry): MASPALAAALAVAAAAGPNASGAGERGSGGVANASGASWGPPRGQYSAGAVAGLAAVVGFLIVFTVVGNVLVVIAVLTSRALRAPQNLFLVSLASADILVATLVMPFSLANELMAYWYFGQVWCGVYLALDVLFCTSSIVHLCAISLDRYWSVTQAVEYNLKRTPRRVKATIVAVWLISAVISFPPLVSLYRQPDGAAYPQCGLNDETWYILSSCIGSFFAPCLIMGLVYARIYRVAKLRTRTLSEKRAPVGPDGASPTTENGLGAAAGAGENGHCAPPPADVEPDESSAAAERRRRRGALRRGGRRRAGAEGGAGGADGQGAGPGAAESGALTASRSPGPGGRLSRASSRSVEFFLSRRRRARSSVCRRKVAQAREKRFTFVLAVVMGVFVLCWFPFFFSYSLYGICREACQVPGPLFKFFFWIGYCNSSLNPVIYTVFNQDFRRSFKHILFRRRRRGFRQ

[11] = biological target: T2, Tyrosine-protein kinase Mer (Homo sapiens) (UniProt Q12866); assay: MERTK Invitrogen selectivity data (BI); settings: Compound concentration 3.0 uM
T2 sequence (whole entry): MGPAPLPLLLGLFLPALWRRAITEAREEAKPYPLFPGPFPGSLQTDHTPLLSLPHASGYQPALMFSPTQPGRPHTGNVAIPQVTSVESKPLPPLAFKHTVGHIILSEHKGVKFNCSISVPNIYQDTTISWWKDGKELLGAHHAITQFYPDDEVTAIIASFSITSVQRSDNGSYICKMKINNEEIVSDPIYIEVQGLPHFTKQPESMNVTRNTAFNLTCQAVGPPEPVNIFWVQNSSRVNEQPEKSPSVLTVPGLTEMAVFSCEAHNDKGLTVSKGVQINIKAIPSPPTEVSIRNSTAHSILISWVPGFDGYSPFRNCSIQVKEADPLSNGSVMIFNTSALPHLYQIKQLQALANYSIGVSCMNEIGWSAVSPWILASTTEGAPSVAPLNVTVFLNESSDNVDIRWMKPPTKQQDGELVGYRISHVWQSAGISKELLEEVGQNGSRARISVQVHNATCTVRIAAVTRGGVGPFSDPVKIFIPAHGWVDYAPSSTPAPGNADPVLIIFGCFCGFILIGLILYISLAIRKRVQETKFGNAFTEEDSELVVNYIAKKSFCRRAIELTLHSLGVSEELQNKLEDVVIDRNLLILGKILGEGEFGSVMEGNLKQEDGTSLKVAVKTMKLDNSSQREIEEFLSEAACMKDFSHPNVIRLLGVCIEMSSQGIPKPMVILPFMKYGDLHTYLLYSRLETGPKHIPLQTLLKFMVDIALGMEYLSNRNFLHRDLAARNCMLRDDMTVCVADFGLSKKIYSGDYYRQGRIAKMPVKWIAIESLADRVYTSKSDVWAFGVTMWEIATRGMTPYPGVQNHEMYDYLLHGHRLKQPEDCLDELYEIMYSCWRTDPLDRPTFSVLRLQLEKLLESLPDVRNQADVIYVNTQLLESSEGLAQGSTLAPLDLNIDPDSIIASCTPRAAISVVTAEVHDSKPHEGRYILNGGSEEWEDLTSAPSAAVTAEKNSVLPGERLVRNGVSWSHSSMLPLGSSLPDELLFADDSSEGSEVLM

[12] = biological target: Muscarinic acetylcholine receptor M3 (Homo sapiens) (UniProt P20309); assay: M3/HU Eurofins-Panlabs selectivity data (BI); settings: Compound concentration 10.0 uM
Sequence of Muscarinic acetylcholine receptor M3 (Homo sapiens) (P20309 whole entry, looked up): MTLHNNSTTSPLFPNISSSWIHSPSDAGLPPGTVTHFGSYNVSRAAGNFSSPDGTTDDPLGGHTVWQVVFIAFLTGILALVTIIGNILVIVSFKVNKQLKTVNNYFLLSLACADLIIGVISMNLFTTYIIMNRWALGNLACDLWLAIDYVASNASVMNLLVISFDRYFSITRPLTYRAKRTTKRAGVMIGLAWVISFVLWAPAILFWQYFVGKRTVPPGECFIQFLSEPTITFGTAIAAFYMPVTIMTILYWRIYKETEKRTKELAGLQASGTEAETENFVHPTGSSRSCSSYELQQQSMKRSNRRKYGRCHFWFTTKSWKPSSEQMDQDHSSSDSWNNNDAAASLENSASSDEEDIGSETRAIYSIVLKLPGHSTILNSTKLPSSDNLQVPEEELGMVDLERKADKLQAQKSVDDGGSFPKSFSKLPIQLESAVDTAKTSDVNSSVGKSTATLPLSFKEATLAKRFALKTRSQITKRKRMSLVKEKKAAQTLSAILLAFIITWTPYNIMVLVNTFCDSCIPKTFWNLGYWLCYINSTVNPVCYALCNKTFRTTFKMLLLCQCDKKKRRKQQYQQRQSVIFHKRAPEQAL

[13] = biological target: T3, Aurora kinase A (Homo sapiens) (UniProt O14965); assay: STK6 Invitrogen selectivity data (BI); settings: Compound concentration 3.0 uM
T3 sequence (whole entry): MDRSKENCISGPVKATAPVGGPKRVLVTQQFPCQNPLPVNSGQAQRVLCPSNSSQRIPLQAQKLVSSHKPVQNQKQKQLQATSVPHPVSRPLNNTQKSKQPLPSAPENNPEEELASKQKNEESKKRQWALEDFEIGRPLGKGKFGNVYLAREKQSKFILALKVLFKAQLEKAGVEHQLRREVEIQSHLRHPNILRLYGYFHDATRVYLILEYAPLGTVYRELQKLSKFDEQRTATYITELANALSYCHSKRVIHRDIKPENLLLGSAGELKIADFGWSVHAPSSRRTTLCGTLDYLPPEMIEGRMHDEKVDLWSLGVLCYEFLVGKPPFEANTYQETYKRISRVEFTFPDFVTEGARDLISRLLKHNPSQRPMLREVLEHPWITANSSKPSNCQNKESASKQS

CN(C)C(=O)Cn1cc(-c2nc(C3(c4ccc(-c5cnc(N)nc5)cc4)CC3)no2)cn1 [BI 0153]
inactive: inhibition [1] 6.54%

CN(C)C(=O)Cn1cc(-c2nc([C@@](C)(c3ccc(-c4cnc(N)nc4)cc3)C3CC3)no2)cn1 [BI 665915]
inactive: residual activity [2] 83% | residual activity [3] 81% | residual activity [4] 97% | residual activity [5] 97.5% | residual activity [6] 94% | residual activity [7] 83% | residual activity [8] 102% | residual activity [9] 94.5% | residual activity [10] 103% | residual activity [11] 94% | residual activity [12] 105% | residual activity [13] 75.5%
